Measured values as given in article PMC4234445 (ACS Medicinal Chemistry Letters, 2014).
Entries after “also recorded” stand apart in the source; their conditions may differ.

Columns and labels:
MV-4;11 (FLT3-ITD) cells = test: CellTiter-Blue cell viability assay in MV-4; assay type: cell-based, human
MYC = test: Western blot of STAT5 transcriptional target MYC in K562 cells; assay type: cell-based, human; settings: 5 h
pSTAT3 = test: Western blot of pSTAT3 in MDA-MB-231 cells; assay type: cell-based
[1] = tested on: healthy human CD34+ umbilical cord cells; test: Cell viability in healthy human CD34+ umbilical cord cells; assay type: cell-based
JAK1/2, ABL, and FLT-3 = test: DiscoveRx KINOMEscan, upstream STAT5 activating kinases; assay type: binding; settings: 5 μM
K562 cells = test: Western blot of apoptosis markers; assay type: cell-based, human; settings: 24 h, 15 μM
[2] = tested on: phosphorylated STAT5 (Y694); test: Western blot of phosphorylated STAT5; assay type: cell-based, human; settings: K562 cells, 5 h treatment
MCL-1 = test: Western blot of STAT5 transcriptional target MCL-1 in K562 cells; assay type: cell-based, human; settings: 24 h, 15 μM

CC(C)(C)c1cc(CN(C(=O)CN(Cc2ccc(Cl)cc2)S(=O)(=O)c2c(F)c(F)c(F)c(F)c2F)c2ccc(C(=O)O)c(O)c2)cc(C(C)(C)C)c1 [13a]
cell viability of MV4-11 cells (MV-4;11 (FLT3-ITD) cells; 10 μM): abolished | IC50 (MV-4;11 (FLT3-ITD) cells; Homo sapiens, MV4-11, 72 h, read-out: IC50, cell viability MV4;11): 3.5 µM | MYC (c-Myc) expression (MYC): dose-dependent decreases; also recorded: Knockdown | pSTAT3 inhibition (pSTAT3; MDA-MB-231, doses corresponding to pSTAT5 inhibition in leukemic cell line): not inhibited | effect on pSTAT3 (pSTAT3; MDA-MB-231 cells, up to 20 μM): no effect | difference in sensitivity CD34+ vs MV4-11 (therapeutic window) [1]: approximate order of magnitude | cell viability of healthy CD34+ cells ([1]; 10 μM): little reduction in cell viability; also recorded: limited effect on cell viability | effect against upstream STAT5 activating kinases JAK1/2, ABL, FLT-3 (JAK1/2, ABL, and FLT-3): negligible effects | cell death / apoptosis (cleaved PARP-1, Caspase-3) (K562 cells): undergo cell death; also recorded: Initiation of apoptosis | concentration at which pSTAT5 is ablated [2]: above 10 μM | pSTAT5 (Y694) levels [2]: decreased pSTAT5 in a dose dependent manner | MCL-1 expression (MCL-1): complete knockdown
